From PubChem BioAssay AID504487 (Sanford-Burnham Center for Chemical Genomics, 2011)
Calls of active or inactive are those of the source.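 Rule for the calls: active = IC50 at or below 20 µM; inactive = the rest.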

tested on: 697 B-cell NF-kB luciferase reporter, PMA/ionomycin, 16 h; experiment: NF-kB reporter suppression in 697 B cells – T-cell screen hits, luminescence, SAR follow-up (AID 504487)

Structure (SMILES)	IC50
COc1ccc(C(NC(=O)c2ccccc2)c2ccc3cccnc3c2O)cc1 (stereo not drawn)	> 79 µM (inactive)
CCCC(=O)NC(c1ccc(Cl)cc1)c1ccc2cccnc2c1O (stereo not drawn)	> 79 µM (inactive)
COc1cccc(C(=O)Nc2ccc3[nH]c(-c4cccc(OC)c4)cc(=O)c3c2)c1	> 79 µM (inactive)
CCCC(=O)NC(c1ccc(C)cc1)c1ccc2cccnc2c1O (stereo not drawn)	> 79 µM (inactive)
CCCC(=O)NC(c1ccccc1)c1ccc2cccnc2c1O (stereo not drawn)	> 79 µM (inactive)
COc1ccc(C(NC(C)=O)c2ccc3cccnc3c2O)cc1 (stereo not drawn)	> 79 µM (inactive)
CCCC(=O)NC(c1ccccc1OC)c1ccc2cccnc2c1O (stereo not drawn)	> 79 µM (inactive)
CCCC(=O)NC(c1ccc(OC)cc1)c1ccc2cccnc2c1O (stereo not drawn)	> 79 µM (inactive)
